Test results taken from US9260429B2, “Pyrido[3,4-B]indoles and methods of use” (Medivation Technologies, Inc., priority 2008, dated 2016).

Columns and labels:
[1] = molecular target: T1, human recombinant dopamine D2L receptor (Homo sapiens, UniProt P14416); assay: Dopamine D2L radioligand binding ([3H]Spiperone); details: 2 h, 1 μM ligand conc.; read-out: Percent Inhibition of ligand binding Dopamine (1 μM ligand conc.) D2L
T1 construct: expressed in transfected cells; host or cells: CHO cells
T1 sequence (P14416 whole entry): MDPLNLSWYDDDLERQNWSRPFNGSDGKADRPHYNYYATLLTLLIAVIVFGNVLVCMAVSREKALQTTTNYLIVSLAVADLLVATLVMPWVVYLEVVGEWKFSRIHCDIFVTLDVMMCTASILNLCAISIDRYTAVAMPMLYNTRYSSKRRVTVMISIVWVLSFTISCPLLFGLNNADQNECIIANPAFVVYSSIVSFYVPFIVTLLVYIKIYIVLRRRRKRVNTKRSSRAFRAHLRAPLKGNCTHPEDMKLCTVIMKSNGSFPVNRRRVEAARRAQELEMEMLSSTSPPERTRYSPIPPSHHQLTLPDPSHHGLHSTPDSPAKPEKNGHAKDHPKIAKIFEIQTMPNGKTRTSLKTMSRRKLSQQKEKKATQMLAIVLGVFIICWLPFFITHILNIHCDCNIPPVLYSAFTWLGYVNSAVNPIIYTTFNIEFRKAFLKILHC
Protocol: To evaluate in radioligand binding assays the activity of compounds of the invention, human recombinant dopamine D2L receptor expressed in Chinese hamster ovary (CHO) cells (Grandy, D. K. et al. Proc. Natl. Acad. Sci. USA. 86:9762, 1989; Hayes, G. et al., Mol. Endocrinol. 6:920, 1992) in a modified Tris-HCl buffer (50 mM Tris-HCl, pH 7.4, 1.4 mM Ascorbic Acid, 0.001% BSA, 150 mM NaCl) was used. Compounds of the invention were incubated with 0.16 nM [^3H]Spiperone for 120 minutes at 25° C. Non-specific binding was estimated in the presence of […] Haloperidol. Receptor proteins were filtered and washed, the filters were then counted to determine [^3H]Spiperone specifically bound. Compounds were screened at 1 μM or lower, using 1% DMSO as vehicle. Biochemical assay results are presented as the percent inhibition of specific binding in Table 4.

[2] = molecular target: T2, human recombinant serotonin (5-Hydroxytryptamine) 5-HT2A receptor (Homo sapiens, UniProt P28223); assay: Serotonin 5-HT2A radioligand binding ([3H]Ketanserin); details: 1 h; read-out: Percent Inhibition of ligand binding Serotonin (1 μM ligand concentration) 5-HT2A
T2 construct: expressed in transfected cells; host or cells: CHO-K1 cells
T2 sequence (P28223 whole entry): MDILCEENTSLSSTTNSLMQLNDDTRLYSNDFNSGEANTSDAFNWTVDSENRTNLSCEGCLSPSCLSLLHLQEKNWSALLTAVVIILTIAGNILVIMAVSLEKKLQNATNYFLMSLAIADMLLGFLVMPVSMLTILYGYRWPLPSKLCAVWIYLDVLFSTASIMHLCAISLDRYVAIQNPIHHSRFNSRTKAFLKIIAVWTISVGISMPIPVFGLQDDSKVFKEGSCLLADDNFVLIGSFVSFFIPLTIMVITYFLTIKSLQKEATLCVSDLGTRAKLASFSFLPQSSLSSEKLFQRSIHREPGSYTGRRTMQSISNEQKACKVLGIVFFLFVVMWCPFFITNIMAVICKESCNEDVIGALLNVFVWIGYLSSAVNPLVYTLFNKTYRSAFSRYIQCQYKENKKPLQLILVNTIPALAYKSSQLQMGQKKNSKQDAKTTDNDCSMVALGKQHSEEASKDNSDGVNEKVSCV
Protocol: To evaluate in radioligand binding assays the activity of compounds of the invention, human recombinant serotonin (5-Hydroxytryptamine) 5-HT2A receptor expressed in Chinese hamster ovary (CHO-K1) cells (Bonhaus, D. W. et al. Br. J. Pharmacol. 115:622, 1995; Saucier, C. and Albert, P. R., J. Neurochem. 68:1998, 1997) in a 50 mM Tris-HCl buffer, pH 7.4, was used. Compounds of the invention were incubated with 0.5 nM [^3H]Ketanserin for 60 minutes at 25° C. Non-specific binding was estimated in the presence of 1 μM Mianserin. Receptor proteins were filtered and washed, the filters were then counted to determine [^3H]Ketanserin specifically bound. Compounds were screened at 1 μM or lower, using 1% DMSO as vehicle. Biochemical assay results are presented as the percent inhibition of specific binding in Table 5.

[3] = molecular target: T3, human recombinant serotonin (5-Hydroxytryptamine) 5-HT2C receptor (Homo sapiens, UniProt P28335); assay: Serotonin 5-HT2C radioligand binding ([3H]Mesulergine); details: 1 h; read-out: Percent Inhibition of ligand binding Serotonin (1 μM ligand concentration) 5-HT2C
T3 construct: expressed in transfected cells; host or cells: CHO-K1 cells
T3 sequence (P28335 33-458): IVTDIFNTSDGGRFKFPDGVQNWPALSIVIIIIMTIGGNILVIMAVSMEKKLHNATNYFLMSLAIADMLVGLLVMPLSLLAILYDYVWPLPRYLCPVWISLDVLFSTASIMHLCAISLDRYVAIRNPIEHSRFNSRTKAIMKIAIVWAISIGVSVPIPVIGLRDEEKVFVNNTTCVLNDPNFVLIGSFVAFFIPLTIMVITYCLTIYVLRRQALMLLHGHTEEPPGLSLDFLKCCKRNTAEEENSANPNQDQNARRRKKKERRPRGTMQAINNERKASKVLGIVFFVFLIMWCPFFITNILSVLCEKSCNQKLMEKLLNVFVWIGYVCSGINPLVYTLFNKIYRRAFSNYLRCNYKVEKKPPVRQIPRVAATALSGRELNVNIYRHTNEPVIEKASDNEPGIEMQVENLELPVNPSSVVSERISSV
Protocol: Compounds of the invention were incubated with 1 nM [^3H]Mesulergine for 60 minutes at 25° C. Non-specific binding was estimated in the presence of 1 μM Mianserin. Receptor proteins were filtered and washed, the filters were then counted to determine [^3H]Mesulergine specifically bound. […] Biochemical assay results are presented as the percent inhibition of specific binding in Table 5.

[4] = molecular target: T4, human recombinant serotonin (5-Hydroxytryptamine) 5-HT7 receptor (Homo sapiens, UniProt P34969); assay: Serotonin 5-HT7 radioligand binding ([3H]LSD); details: 2 h; read-out: Percent Inhibition of ligand binding Serotonin (1 μM ligand concentration) 5-HT7
T4 construct: expressed in transfected cells; host or cells: CHO cells
T4 sequence (P34969 whole entry): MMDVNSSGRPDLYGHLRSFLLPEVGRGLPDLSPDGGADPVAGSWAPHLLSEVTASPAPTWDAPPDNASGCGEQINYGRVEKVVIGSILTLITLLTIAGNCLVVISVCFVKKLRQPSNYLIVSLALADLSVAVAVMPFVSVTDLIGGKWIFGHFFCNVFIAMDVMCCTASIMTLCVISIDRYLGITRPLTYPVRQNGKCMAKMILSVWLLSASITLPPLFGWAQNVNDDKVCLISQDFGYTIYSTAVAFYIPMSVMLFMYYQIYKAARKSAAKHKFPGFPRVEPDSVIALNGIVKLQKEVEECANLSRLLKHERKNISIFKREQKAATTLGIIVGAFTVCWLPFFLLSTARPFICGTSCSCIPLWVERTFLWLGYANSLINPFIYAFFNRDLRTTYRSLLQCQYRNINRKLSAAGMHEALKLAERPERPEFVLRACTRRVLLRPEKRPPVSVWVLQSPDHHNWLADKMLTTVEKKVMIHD
Protocol: To evaluate in radioligand binding assays the activity of compounds of the invention, human recombinant serotonin (5-Hydroxytryptamine) 5-HT7 receptor expressed in Chinese hamster ovary (CHO) cells (Roth, B. L. et al., J. Pharmacol. Exp. Ther. 268:1403, 1994; Shen, Y. et al., J. Biol. Chem. 268:18200, 1993) in a modified Tris-HCl buffer (50 mM Tris-HCl, pH 7.4, 10 mM MgCl2, 0.5 mM EDTA) was used. Compounds of invention were incubated with 5.5 nM [^3H]Lysergic acid diethylamide (LSD) for 2 hours at 25° C. Non-specific binding was estimated in the presence of […] Serotonin (5-HT). Receptor proteins were filtered and washed, the filters were then counted to determine [^3H]LSD specifically bound. Compounds were screened at 1 μM or lower, using 1% DMSO as vehicle. Biochemical assay results are presented as the percent inhibition of specific binding in Table 5.

[5] = molecular target: T5, human recombinant histamine H2 receptor (Homo sapiens, UniProt P25021); assay: Histamine H2 radioligand binding ([125I]Aminopotentidine); details: 1 μM; inhibition of specific [125I]Aminopotentidine binding; read-out: Binding data (Percentage Inhibition) Histamine Binding (1 μM) H2
T5 construct: expressed in transfected cells; host or cells: CHO-K1 cells
T5 sequence (P25021 whole entry): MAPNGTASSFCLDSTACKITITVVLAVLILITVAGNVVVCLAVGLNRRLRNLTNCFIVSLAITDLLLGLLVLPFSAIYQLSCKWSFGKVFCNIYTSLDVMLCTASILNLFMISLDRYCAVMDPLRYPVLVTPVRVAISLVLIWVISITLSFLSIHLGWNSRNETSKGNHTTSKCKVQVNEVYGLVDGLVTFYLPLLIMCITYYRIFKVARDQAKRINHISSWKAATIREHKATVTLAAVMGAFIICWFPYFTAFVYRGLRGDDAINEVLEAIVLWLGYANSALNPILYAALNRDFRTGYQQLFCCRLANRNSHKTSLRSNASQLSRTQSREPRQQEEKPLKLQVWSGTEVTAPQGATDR
Protocol: To evaluate in radioligand binding assays the activity of compounds of the invention, human recombinant histamine H2 receptor expressed in Chinese hamster ovary (CHO) K1 cells (Ruat, M., Proc. Natl. Acad. Sci. USA. 87(5):1658, 1990) in a 50 mM Phosphate buffer, pH 7.4 was used. Compounds of the invention were incubated with 0.1 nM [^125I]Aminopotentidine for 120 minutes at 25° C. Non-specific binding was estimated in the presence of 3 μM Tiotidine. Receptor proteins were filtered and washed, the filters were then counted to determine [^125I]Aminopotentidine specifically bound. Compounds were screened at 1 μM or lower, using 1% DMSO as vehicle. Biochemical assay results are presented as the percent inhibition of specific binding in Table 3.

[6] = molecular target: T6, human recombinant serotonin (5-Hydroxytryptamine) 5-HT6 receptor (Homo sapiens, UniProt P50406); assay: Serotonin 5-HT6 radioligand binding ([3H]LSD); details: 2 h; read-out: Percent Inhibition of ligand binding Serotonin (1 μM ligand concentration) 5-HT6
T6 construct: expressed in transfected cells; host or cells: human HeLa cells
T6 sequence (P50406 whole entry): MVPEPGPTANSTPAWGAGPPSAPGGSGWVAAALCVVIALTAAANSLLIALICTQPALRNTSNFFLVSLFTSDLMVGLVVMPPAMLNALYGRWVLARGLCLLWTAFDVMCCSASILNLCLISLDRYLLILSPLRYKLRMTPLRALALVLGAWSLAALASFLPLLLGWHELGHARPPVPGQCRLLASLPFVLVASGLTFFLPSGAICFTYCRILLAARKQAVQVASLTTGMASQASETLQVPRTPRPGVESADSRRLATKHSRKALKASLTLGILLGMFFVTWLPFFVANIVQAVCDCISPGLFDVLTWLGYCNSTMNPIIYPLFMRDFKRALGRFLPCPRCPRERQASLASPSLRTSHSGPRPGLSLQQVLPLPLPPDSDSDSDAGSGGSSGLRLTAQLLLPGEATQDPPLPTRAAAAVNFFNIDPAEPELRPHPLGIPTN
Protocol: To evaluate in radioligand binding assays the activity of compounds of the invention, human recombinant serotonin (5-Hydroxytryptamine) 5-HT6 receptor expressed in human HeLa cells (Monsma, F. J. Jr. et al., Mol. Pharmacol. 43:320, 1993) in a modified Tris-HCl buffer (50 mM Tris-HCl, pH 7.4, 150 mM NaCl, 2 mM Ascorbic Acid, 0.001% BSA) was used. Compounds of the invention were incubated with 1.5 nM [3H]Lysergic acid diethylamide (LSD) for 120 minutes at 37° C. Non-specific binding was estimated in the presence of […] Serotonin (5-HT). Receptor proteins were filtered and washed, the filters were then counted to determine [3H]LSD specifically bound. Compounds were screened at 1 μM or lower, using 1% DMSO as vehicle. Biochemical assay results are presented as the percent inhibition of specific binding in Table 5.

[7] = molecular target: T7, human recombinant histamine H1 receptor (Homo sapiens, UniProt P35367); assay: Histamine H1 radioligand binding ([3H]Pyrilamine); details: 1 μM; read-out: Binding data (Percentage Inhibition) Histamine Binding (1 μM) H1
T7 construct: expressed in transfected cells; host or cells: CHO cells
T7 sequence (P35367 whole entry): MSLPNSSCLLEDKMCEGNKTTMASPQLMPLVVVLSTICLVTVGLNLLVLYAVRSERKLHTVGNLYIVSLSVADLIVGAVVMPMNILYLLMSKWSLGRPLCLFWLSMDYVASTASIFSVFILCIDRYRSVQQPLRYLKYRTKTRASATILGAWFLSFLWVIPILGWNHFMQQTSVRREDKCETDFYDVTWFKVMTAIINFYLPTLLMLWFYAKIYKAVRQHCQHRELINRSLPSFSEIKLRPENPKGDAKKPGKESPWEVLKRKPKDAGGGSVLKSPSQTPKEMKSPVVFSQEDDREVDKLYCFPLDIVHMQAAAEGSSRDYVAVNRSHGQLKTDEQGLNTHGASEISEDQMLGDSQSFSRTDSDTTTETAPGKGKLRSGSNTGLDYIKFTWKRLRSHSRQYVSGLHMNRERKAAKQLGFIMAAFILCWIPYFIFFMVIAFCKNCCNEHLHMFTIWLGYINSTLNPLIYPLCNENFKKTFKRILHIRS
Protocol: To evaluate in radioligand binding assays the activity of compounds of the invention, human recombinant histamine H1 receptor expressed in Chinese hamster ovary (CHO) cells (De Backer, M. D. et al., Biochem. Biophys. Res. Comm. 197(3):1601, 1993) in a modified Tris-HCl buffer (50 mM Tris-HCl, pH 7.4, 2 mM MgCl2, 100 mM NaCl, 250 mM Sucrose) was used. Compounds of the invention were incubated with 1.2 nM [^3H]Pyrilamine for 180 minutes at 25° C. Non-specific binding was estimated in the presence of 1 μM pyrilamine. Receptor proteins were filtered and washed, the filters were then counted to determine [^3H]Pyrilamine specifically bound. […] Biochemical assay results are presented as the percent inhibition of specific binding in Table 3.

Structure (SMILES)	inhibition at 1 µM [1] [%]	inhibition at 1 µM [2] [%]	inhibition at 1 µM [3] [%]	inhibition at 1 µM [4] [%]	inhibition at 1 µM [5] [%]	inhibition at 1 µM [6] [%]	inhibition at 1 µM [7] [%]
C/C(=C/n1c2c(c3cc(C)ccc31)CCN(C)C2C)c1ccc(F)c(F)c1 (centres unmarked) [Compound 175, 9-(2-(3,4-difluorophenyl)prop-1-enyl)-1,2,6-trimethyl-2,3,4,9-tetrahydro-1H-pyrido[3,4-b]indole]	0	86	97	82	60	77	25
CCC1c2c(c3cc(Cl)ccc3n2/C=C(\C)c2ccc(F)c(F)c2)CCN1C (centres unmarked) [Compound 112, 6-chloro-9-(2-(3,4-difluorophenyl)prop-1-enyl)-1-ethyl-2-methyl-2,3,4,9-tetrahydro-1H-pyrido[3,4-b]indole]	12	82	94	67	38	61	33
CCC1c2c(c3cc(Cl)ccc3n2/C=C(\C)c2cccnc2)CCN1C (centres unmarked) [Compound 108]	-4	45	60	62	12	6	30
COc1ccc(/C(C)=C/n2c3c(c4cc(Cl)ccc42)CCN(C)C3)cc1F [Compound 122, 6-chloro-9-(2-(3-fluoro-4-methoxyphenyl)prop-1-enyl)-2-methyl-2,3,4,9-tetrahydro-1H-pyrido[3,4-b]indole]	21	95	102	95	56	36	13
CCC1c2c(c3cc(Cl)ccc3n2C(=O)Cc2ccc(F)cc2)CCN1C (centres unmarked) [Compound 171]	5	80	92	13	17	36	15
C/C(=C\n1c2c(c3cc(C)ccc31)CCN(C)C2)c1ccc(Cl)c(Cl)c1 [Compound 113, 9-(2-(3,4-dichlorophenyl)prop-1-enyl)-2,6-dimethyl-2,3,4,9-tetrahydro-1H-pyrido[3,4-b]indole]	9	99	91	84	81	49	26
C/C(=C\n1c2c(c3cc(Cl)ccc31)CCN(C)C2C)c1ccc(F)c(F)c1 (centres unmarked) [Compound 111, 6-chloro-9-(2-(3,4-difluorophenyl)prop-1-enyl)-1,2-dimethyl-2,3,4,9-tetrahydro-1H-pyrido[3,4-b]indole]	5	79	93	78	61	88	60
C/C(=C\n1c2c(c3cc(C)ccc31)CCN(C)C2C)c1ccc(Cl)cc1Cl (centres unmarked) [Compound 178]	3	97	101	59	54	25	44
COc1ccc(C#Cn2c3c(c4cc(Cl)ccc42)CCN(C)C3)cc1F [Compound 155, 6-chloro-9-((3-fluoro-4-methoxyphenyl)ethynyl)-2-methyl-2,3,4,9-tetrahydro-1H-pyrido[3,4-b]indole]	12	85	95	19	49	14	2
C/C(=C\n1c2c(c3cc(C)ccc31)CCN(C)C2)c1ccc(F)c(F)c1 [Compound 109, 9-(2-(3,4-difluorophenyl)prop-1-enyl)-2,6-dimethyl-2,3,4,9-tetrahydro-1H-pyrido[3,4-b]indole]	12	96	97	96	67	72	20
CCC1c2c(c3cc(Cl)ccc3n2/C=C(\C)c2ccc(Cl)c(Cl)c2)CCN1C (centres unmarked) [Compound 116, 6-chloro-9-(2-(3,4-dichlorophenyl)prop-1-enyl)-1-ethyl-2-methyl-2,3,4,9-tetrahydro-1H-pyrido[3,4-b]indole]	0	83	85	51	50	38	8
